“Also recorded” adds a separate entry of the source. Read-outs that look alike come from different tables or passages of the source. Each block holds one compound with its values, some of them ahead of it.
How the values were obtained:
[1] = target: T1, porcine pancreatic α-amylase (Sus scrofa, UniProt P00690); assay: In vitro pancreatic α-amylase inhibition assay (CNPG3 substrate, 405 nm); assay type: biochemical; conditions: for IC50: enzyme 0.2 U/mL, CNPG3 0.5 mM, pH 6.8, 37 °C; for Inhibition of α-amylase activity (in words): up to the highest tested concentration (200 µM);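 for all read-outs here: enzyme rate taken from the absorbance slope between 5 and 30 min of CNPG3 hydrolysis, inhibition derived from these rates, at least three independent experiments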
T1 construct: α-Amylase from porcine pancreas; purchased Sigma-Aldrich Co. LLC (St. Louis, MO); host or cells: porcine pancreas (tissue-derived commercial preparation)
T1 sequence (P00690 16-511): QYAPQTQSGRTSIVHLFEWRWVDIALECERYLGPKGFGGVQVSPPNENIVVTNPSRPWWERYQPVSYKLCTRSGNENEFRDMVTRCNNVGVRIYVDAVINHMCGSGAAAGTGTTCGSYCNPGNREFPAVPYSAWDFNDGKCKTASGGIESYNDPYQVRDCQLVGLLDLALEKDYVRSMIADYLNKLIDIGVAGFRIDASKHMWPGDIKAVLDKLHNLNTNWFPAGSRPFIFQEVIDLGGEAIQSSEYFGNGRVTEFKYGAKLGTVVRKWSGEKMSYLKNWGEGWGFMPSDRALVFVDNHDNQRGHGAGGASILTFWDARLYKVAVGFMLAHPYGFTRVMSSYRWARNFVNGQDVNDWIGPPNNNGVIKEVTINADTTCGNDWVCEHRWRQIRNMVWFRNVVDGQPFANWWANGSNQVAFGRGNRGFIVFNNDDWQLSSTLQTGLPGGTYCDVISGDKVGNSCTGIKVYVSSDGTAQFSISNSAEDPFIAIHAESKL

[2] = target: T2, α-amylase from porcine pancreas (Sus scrofa, UniProt P00690); assay: Inhibitory kinetics of α-amylase (nonlinear regression, Excel Solver); assay type: biochemical; conditions: for Type of inhibition: CNPG3 0.25, 0.5 and 1 mM, best model by F test and AIC; for Vmax: best model; for V max (Solver fit): rate axis DA/min
T2 construct: α-Amylase from porcine pancreas; purchased Sigma-Aldrich Co. LLC (St. Louis, MO); host or cells: porcine pancreas (tissue-derived commercial preparation)
T2 sequence (P00690 16-511): T1 sequence (P00690 16-511)

[3] = target: T1, porcine pancreatic α-amylase; set-up: method as in Tadera et al.,[21]; conditions: highest tested concentration of 0.5 mM; ref Tadera et al.,[21]; cited from earlier work
[4] = test system: α-amylase; set-up: method as in Kim et al.[55] and Yoon and Robyt,[52]; conditions: ref Kim et al.[55] and Yoon and Robyt,[52]; cited from earlier work
[5] = competitive inhibition constant, ± SD (jackknife), read-out: Kic
[6] = supplement, competitive inhibition model
[7] = supplement, competitive inhibition model, read-out: K ic (Solver fit)
[8] = 200 µM, mean ± SEM, read-out: Inhibition (%) at the highest tested concentration

Compound: O=c1cc(-c2ccc(O)c(O)c2)oc2cc(O)ccc12 [C6]
IC50 ([1]; mean ± SEM): 131 ± 1 µM

Compound: O=c1c(O)c(-c2ccc(O)cc2)oc2cc(O)ccc12 [C5]
IC50 ([1]; mean ± SEM): 59 ± 4 µM
Type of inhibition [2]: competitive inhibitors; also recorded: competitive inhibition
Vmax ([2]; ± SD (jackknife)): 10.5 ± 0.9 µmol/min
Ki [2, 5]: 71 ± 7 µM
K m (Solver fit) [2, 6]: 0,9963 mM
V max (Solver fit) [2, 6]: 35,186
Ki [2, 7]: 71.4 µM

Compound: O=c1cc(-c2cccc(O)c2)oc2cccc(O)c12 [B2]
inhibition at 200 µM [1, 8]: < 20%

Compound: O=c1c(O)c(-c2ccc(O)c(O)c2)oc2ccccc12 [A5]
inhibition at 200 µM [1, 8]: 31 ± 3%

Compound: O=c1cc(-c2ccc(O)c(O)c2)oc2cccc(O)c12 [B4]
IC50 ([1]; mean ± SEM): 148 ± 5 µM
Type of inhibition [2]: competitive inhibitors; also recorded: competitive inhibition
Vmax ([2]; ± SD (jackknife)): 12.0 ± 0.6 µmol/min
Ki [2, 5]: 132 ± 15 µM
V max (Solver fit) [2, 6]: 40,026555
Ki [2, 7]: 132 µM

Compound: O=c1cc(-c2ccccc2)oc2ccccc12 [A1, Flavone]
inhibition at 200 µM [1, 8]: < 20%

Compound: O=c1cc(-c2ccc(O)cc2)oc2cc(O)ccc12 [C3]
inhibition at 200 µM [1, 8]: 36 ± 3%
Inhibition of α-amylase activity (in words) [1]: lack of inhibitory activity

Compound: O=c1cc(-c2cccc(O)c2)oc2cc(O)ccc12 [C2]
inhibition at 200 µM [1, 8]: 28 ± 3%

Compound: O=c1c(O)c(-c2cccc(O)c2)oc2cc(O)ccc12 [C4]
inhibition at 200 µM [1, 8]: 34 ± 3%
Inhibition of α-amylase activity (in words) [1]: low activity

Compound: O=C1C[C@@H](c2ccc(O)c(O)c2)Oc2cc(O)cc(O)c21 [E2, Eriodictyol]
inhibition at 200 µM [1, 8]: < 20%
Inhibition of α-amylase activity (in words) [1]: not able to inhibit

Compound: O=c1cc(-c2ccc(O)c(O)c2)oc2ccccc12 [A4]
inhibition at 200 µM [1, 8]: 46 ± 2%

Compound: O=c1cc(-c2ccccc2)oc2cccc(O)c12 [B1]
inhibition at 200 µM [1, 8]: < 2%

Compound: O=c1cc(-c2cccc(O)c2)oc2ccccc12 [A2]
inhibition at 200 µM [1, 8]: < 20%

Compound: O=c1cc(-c2ccc(O)cc2)oc2ccccc12 [A3]
inhibition at 200 µM [1, 8]: < 20%

Compound: COc1ccc(-c2oc3ccccc3c(=O)c2O)cc1OC [A6]
inhibition at 200 µM [1, 8]: < 20%

Compound: C[C@H]1O[C@H](O[C@H]2[C@H](O)[C@@H](O)[C@@H](O[C@H]3[C@H](O)[C@@H](O)C(O)O[C@@H]3CO)O[C@@H]2CO)[C@H](O)[C@@H](O)[C@@H]1N[C@H]1C=C(CO)[C@@H](O)[C@H](O)[C@H]1O (stereo partly drawn) [Acarbose, reference compound]
Type of inhibition [2]: Mixed
Type of inhibition ([2]; listed as acarbose): mixed-type inhibitor; also recorded: mixed-type inhibition
Vmax ([2]; ± SD (jackknife)): 12.0 ± 0.9 µmol/min
V max (Solver fit) ([2]; supplement, mixed inhibition model): 39,76745004
Type of inhibition [4]: mixed type inhibitor

Compound: COc1cccc(-c2oc3cc(OC)ccc3c(=O)c2O)c1 [C7]
inhibition at 200 µM [1, 8]: < 20%
Inhibition of α-amylase activity (in words) [1]: remained unchanged; also recorded: no inhibitory activity

Compound: Acacetin [D17]
Inhibition (%) at the highest tested concentration ([1]; 200 µM, mean ± SEM): <20%^200 µM*

Compound: O=c1cc(-c2ccc(O)cc2)oc2cccc(O)c12 [B3]
inhibition at 200 µM [1, 8]: < 20%

Compound: COc1ccc(-c2oc3cc(OC)ccc3c(=O)c2O)cc1 [C8]
inhibition at 100 µM ([1]; 100 µM, mean ± SEM, read-out: Inhibition (%) at the highest tested concentration): < 20%
Inhibition of α-amylase activity (in words) [1]: remained unchanged; also recorded: no inhibitory activity

Compound: O=c1cc(-c2ccccc2)oc2cc(O)ccc12 [C1]
inhibition at 200 µM ([1]; read-out: Inhibition (%) at the highest tested concentration): < 20%

Further lines, with some results ahead:

IC50 ([1]; mean ± SEM): 107 ± 6 µM
Compound: O=c1c(O)c(-c2cc(O)c(O)c(O)c2)oc2cc(O)cc(O)c12 [D9, Myricetin]

Inhibition (%) at the highest tested concentration ([1]; 200 µM, mean ± SEM): 23 ± 1 %^200µM*
Compound: Morin [D10]

inhibition at 200 µM [1, 8]: < 20%
Inhibition of α-amylase activity (in words) [1]: not able to inhibit
Compound: O=C1C[C@@H](c2ccc(O)cc2)Oc2cc(O)cc(O)c21 [E1, Naringenin]
Inhibition of porcine pancreatic α-amylase activity (in words) [3]: not able to inhibit

IC50 ([1]; mean ± SEM): 118 ± 7 µM
Compound: O=c1c(O)c(-c2ccc(O)cc2)oc2cc(O)cc(O)c12 [D6, Kaempferol]

IC50 ([1]; mean ± SEM): ~200 µM
Compound: O=c1cc(-c2cccc(O)c2)oc2cc(O)cc(O)c12 [D4]

inhibition at 200 µM [1, 8]: < 20%
Compound: O=c1c(O)c(-c2ccccc2)oc2cc(O)cc(O)c12 [D2, Galangin]

Decrease of inhibitory activity / increase of IC50 compared with D11 ([1]; fold, relative to D11): two-fold
IC50 ([1]; mean ± SEM): 78 ± 3 µM
Compound: O=c1cc(-c2ccc(O)c(O)c2)oc2cc(O)cc(O)c12 [D7, Luteolin]

inhibition at 200 µM [1, 8]: < 20%
Inhibition of α-amylase activity (in words) [1]: no activity was found
Compound: C[C@@H]1O[C@@H](OC[C@H]2O[C@@H](Oc3c(-c4ccc(O)c(O)c4)oc4cc(O)cc(O)c4c3=O)[C@H](O)[C@@H](O)[C@@H]2O)[C@H](O)[C@H](O)[C@H]1O [D19, Rutin]

inhibition at 200 µM [1, 8]: 22 ± 3%
Compound: O=c1cc(-c2ccccc2)oc2cc(O)cc(O)c12 [D1, Chrysin]

inhibition at 200 µM [1, 8]: 33 ± 3%
Compound: COc1ccc(-c2cc(=O)c3c(O)cc(O)cc3o2)cc1OC [D18]

inhibition at 200 µM [1, 8]: < 20%
Inhibition of α-amylase activity (in words) [1]: not able to inhibit
Compound: O=C1c2c(O)cc(O)cc2OC(c2ccc(O)c(O)c2)C1O (stereo not drawn) [E3, Taxifolin]

— paper PMC6366418, “Evaluation of a flavonoids library for inhibition of pancreatic α-amylase towards a structure–activity relationship” (Journal of Enzyme Inhibition and Medicinal Chemistry, 2019)
